This note sets out measurements from ChEMBL document CHEMBL1201862, “PubChem BioAssay data set” (2004).

For assay [1], the target named is T1, Tyrosine-protein phosphatase non-receptor type 7 (Homo sapiens, UniProt P35236).
T1 sequence (P35236 whole entry): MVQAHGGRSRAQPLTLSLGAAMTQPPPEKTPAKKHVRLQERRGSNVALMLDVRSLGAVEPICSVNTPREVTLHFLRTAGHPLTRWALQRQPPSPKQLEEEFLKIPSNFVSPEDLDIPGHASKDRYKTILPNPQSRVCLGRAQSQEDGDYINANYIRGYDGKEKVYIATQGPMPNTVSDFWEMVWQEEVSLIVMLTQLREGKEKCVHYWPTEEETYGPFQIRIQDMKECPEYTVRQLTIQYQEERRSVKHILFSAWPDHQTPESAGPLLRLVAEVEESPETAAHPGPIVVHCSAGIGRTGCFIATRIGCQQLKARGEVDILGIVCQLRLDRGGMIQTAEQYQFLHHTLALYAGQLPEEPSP
Put plainly: HePTP (PTPN7) phosphatase inhibitor potency, SAR follow-up, biochemical, set 2 (AID 449736). In kind it is functional.

In assay [2] the target is T2, Tyrosine-protein phosphatase non-receptor type 22 (Homo sapiens, UniProt Q9Y2R2).
T2 sequence (Q9Y2R2 whole entry): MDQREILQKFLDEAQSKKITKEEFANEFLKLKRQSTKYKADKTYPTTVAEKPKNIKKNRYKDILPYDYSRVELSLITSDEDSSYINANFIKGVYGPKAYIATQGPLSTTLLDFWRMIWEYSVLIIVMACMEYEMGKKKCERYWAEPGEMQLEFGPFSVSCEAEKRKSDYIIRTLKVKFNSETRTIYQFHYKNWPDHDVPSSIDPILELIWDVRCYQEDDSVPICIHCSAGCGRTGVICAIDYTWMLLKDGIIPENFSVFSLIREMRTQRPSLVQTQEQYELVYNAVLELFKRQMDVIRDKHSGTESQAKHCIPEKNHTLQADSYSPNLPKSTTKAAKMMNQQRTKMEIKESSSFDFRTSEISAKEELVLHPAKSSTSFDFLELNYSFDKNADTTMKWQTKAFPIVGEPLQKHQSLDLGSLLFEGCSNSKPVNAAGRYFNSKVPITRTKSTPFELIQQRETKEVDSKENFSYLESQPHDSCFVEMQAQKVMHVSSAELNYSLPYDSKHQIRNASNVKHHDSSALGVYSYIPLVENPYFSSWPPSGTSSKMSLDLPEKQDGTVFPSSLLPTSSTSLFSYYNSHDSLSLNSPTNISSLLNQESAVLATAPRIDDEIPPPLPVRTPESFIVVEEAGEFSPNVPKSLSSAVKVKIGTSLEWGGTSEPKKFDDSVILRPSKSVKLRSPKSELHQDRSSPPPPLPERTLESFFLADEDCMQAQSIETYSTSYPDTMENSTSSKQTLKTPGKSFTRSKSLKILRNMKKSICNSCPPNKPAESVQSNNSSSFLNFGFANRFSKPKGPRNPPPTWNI
Put plainly: LYP (PTPN22) phosphatase inhibitor potency, SAR follow-up, biochemical, pCAP fluorogenic substrate, fluorescence, set 3 (AID 449727). In kind it is functional.

For assay [3], the target named is G-protein coupled receptor 35 (Homo sapiens, UniProt Q9HC97). Put plainly: SAR Analysis for the identification of Selective Antagonists of ERK1/2 Activity in GPR35-Overexpressing U2OS Cells. [Related pubchem assays: 2079, 2058 ]. In kind it is functional, cell-based.
The target in assay [4] is G-protein coupled receptor 55 (Homo sapiens, UniProt Q9Y2T6). Description: GPR55 antagonists, SAR follow-up, counter-screen for GPR35 antagonist project, imaging, image-based (AID 2397). In kind it is functional.
In assay [5] the target is Tyrosine-protein phosphatase non-receptor type 12 (Homo sapiens, UniProt Q05209). Put plainly: SAR Selectivity Analysis of small molecule inhibitors of PEST using pCAP in a fluorescence assay. [Related pubchem assays (depositor defined):AID1779, AID1784, AID2135]. In kind it is functional.
Assay [6] has as its target T2, Tyrosine-protein phosphatase non-receptor type 22. Description: SAR LYP1 Fluorescent Assay using OMFP substrate for In Vitro dose response studies - Set 3. [Related pubchem assays (depositor defined):AID1779, AID1784, AID2140, AID2686]. In kind it is functional.
In assay [7] the target is Voltage-dependent T-type calcium channel subunit alpha-1H (Homo sapiens, UniProt O95180). Description: Cav3.2 T-type channel blockers, cell-based, SynthLib3 library, HEK293 Cav3.2, fluorescence (AID 493041). In kind it is functional.
Another assay concerns the target CAAX prenyl protease 1 (Saccharomyces cerevisiae S288c, UniProt P47154). Description: Ste24 protease inhibitors, dose response, biochemical, S. cerevisiae, plate reader, cherry-pick (AID 488815).
Another assay concerns the target Trypsin (Sus scrofa, UniProt P00761). Description: porcine trypsin inhibitors, dose response, selectivity assay for Rce1 protease inhibitor project, biochemical, quenched peptide fluorescence, cherry-pick (AID 488789).
Another assay addresses T3, CAAX prenyl protease 2 (Homo sapiens, UniProt Q9Y256).
T3 sequence (Q9Y256 whole entry): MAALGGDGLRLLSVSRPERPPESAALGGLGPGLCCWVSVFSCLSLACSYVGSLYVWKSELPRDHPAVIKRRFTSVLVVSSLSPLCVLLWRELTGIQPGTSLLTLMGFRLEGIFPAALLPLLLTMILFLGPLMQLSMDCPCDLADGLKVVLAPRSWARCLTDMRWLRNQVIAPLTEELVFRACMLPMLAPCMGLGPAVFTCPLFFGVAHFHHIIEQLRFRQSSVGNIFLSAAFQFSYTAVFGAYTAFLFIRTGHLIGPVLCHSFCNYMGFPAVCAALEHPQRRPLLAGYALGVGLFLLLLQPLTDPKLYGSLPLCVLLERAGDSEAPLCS
Put plainly: human Rce1 protease inhibitors, dose response, biochemical, yeast membranes, quenched-peptide fluorescence, cherry-pick (AID 588849).

Assay [8] can be described thus: cytotoxicity toward NIH3T3 fibroblasts, dose response, counter-screen, cell-based, ATP luminescence, mouse fibroblasts (AID 2010).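 Note: cells exposed to compound for about 90 hours before reading.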 In kind it is functional.
Assay [9] can be described thus: Counterscreen for AddAB inhibitors: absorbance-based bacterial cell-based high throughput dose response assay for inhibitors of bacterial viability. [Related pubchem assays (depositor defined):AID435030, AID449728, AID449731, AID488942, AID488955, AID488956]. In kind it is functional.
The target in assay [10] is T4, Voltage-gated N-type calcium channel alpha-1B subunit/Amyloid beta A4 precursor protein-binding family A member 1 (Homo sapiens, UniProt Q00975+Q02410). In kind it is protein assay.
Another assay has as its system Vero. Description: cells. In kind it is functional. The settings on record: Chlorocebus sabaeus.
For another assay, the target named is Exodeoxyribonuclease V (Escherichia coli (strain K12), UniProt P04993+P07648+P08394). Put plainly: E. coli RecBCD inhibitors, dose response, counter-screen for AddAB inhibitor project, absorbance, V66 E. coli, mutant T4 phage (AID 492957). In kind it is functional, cell-based, Escherichia coli str. K-12 substr. MG1655.
Assay [11] deals with T4, Voltage-gated N-type calcium channel alpha-1B subunit/Amyloid beta A4 precursor protein-binding family A member 1. In kind it is protein assay. This is another data set of the same source.
Assay [12] is described as follows: inhibitors of intracellular T. cruzi replication, confirmation, NIH3T3 host cells, beta-gal luminescence (AID 2044).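 Note: intracellular parasites grown in NIH/3T3 mouse fibroblasts as host cells; luminescent beta-galactosidase reporter signal from transgenic T. cruzi replicating inside host cells; inhibitors lower the luminescence signal.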 In kind it is functional, cell-based.

Active and inactive are the calls of the source.

T4 sequence (Q00975 whole entry): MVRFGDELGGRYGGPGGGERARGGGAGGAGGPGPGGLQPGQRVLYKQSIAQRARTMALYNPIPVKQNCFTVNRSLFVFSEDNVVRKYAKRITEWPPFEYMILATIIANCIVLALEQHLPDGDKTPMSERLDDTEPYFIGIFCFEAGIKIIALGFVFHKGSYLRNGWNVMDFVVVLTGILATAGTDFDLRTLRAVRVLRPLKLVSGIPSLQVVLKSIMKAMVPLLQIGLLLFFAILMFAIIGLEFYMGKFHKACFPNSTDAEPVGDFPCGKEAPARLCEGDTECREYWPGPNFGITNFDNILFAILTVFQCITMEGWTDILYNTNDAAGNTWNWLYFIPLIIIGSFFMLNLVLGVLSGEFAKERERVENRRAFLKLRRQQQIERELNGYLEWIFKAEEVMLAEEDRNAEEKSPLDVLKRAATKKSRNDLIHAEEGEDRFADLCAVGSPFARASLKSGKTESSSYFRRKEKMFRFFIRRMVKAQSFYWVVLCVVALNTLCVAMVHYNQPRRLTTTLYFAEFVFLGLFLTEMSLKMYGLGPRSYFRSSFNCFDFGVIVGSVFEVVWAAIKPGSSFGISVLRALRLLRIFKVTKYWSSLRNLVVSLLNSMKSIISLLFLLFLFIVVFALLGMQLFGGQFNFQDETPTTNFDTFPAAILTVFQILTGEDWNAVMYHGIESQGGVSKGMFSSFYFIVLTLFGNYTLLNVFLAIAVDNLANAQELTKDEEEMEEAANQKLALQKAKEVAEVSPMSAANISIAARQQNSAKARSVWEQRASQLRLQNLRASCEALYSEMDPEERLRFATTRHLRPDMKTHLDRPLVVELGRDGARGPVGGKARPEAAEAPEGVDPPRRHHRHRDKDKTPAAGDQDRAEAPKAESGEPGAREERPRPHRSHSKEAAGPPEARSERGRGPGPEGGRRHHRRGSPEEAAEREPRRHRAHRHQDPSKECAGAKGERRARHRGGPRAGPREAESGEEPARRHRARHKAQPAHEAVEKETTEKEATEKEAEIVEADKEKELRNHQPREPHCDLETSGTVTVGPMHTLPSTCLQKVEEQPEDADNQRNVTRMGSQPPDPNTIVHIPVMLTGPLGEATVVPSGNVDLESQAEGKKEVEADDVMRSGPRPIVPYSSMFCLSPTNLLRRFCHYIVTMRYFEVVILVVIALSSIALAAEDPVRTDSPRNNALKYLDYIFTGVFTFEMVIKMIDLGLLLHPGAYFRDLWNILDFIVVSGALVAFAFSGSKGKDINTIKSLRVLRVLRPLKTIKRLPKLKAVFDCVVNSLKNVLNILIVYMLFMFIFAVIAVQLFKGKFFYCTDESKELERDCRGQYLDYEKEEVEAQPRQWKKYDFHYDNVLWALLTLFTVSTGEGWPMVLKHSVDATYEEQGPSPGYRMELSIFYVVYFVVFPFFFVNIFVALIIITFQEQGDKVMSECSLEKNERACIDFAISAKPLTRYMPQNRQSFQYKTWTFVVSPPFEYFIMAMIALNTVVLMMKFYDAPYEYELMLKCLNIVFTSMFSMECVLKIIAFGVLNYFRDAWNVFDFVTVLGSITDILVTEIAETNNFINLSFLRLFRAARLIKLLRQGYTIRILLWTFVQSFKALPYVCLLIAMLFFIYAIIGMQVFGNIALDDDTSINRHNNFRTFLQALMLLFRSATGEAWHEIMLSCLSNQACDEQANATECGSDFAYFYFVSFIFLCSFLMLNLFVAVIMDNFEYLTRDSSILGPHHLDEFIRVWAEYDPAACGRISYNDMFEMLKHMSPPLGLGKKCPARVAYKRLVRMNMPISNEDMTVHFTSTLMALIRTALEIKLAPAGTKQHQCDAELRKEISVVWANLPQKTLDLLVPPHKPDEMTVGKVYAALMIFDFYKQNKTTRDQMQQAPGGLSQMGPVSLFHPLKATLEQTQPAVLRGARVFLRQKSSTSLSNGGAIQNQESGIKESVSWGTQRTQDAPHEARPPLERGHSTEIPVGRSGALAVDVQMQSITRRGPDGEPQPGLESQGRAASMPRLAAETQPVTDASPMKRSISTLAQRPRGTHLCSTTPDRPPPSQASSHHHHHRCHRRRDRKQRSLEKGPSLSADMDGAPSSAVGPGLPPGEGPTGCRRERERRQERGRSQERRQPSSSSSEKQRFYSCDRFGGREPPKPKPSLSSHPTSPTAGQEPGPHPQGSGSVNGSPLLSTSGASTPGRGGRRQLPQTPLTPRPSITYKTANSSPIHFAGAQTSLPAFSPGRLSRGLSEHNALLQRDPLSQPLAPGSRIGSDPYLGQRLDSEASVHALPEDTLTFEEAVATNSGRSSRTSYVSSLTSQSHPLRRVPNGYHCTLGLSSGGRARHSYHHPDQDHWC
T4 sequence (Q02410 whole entry): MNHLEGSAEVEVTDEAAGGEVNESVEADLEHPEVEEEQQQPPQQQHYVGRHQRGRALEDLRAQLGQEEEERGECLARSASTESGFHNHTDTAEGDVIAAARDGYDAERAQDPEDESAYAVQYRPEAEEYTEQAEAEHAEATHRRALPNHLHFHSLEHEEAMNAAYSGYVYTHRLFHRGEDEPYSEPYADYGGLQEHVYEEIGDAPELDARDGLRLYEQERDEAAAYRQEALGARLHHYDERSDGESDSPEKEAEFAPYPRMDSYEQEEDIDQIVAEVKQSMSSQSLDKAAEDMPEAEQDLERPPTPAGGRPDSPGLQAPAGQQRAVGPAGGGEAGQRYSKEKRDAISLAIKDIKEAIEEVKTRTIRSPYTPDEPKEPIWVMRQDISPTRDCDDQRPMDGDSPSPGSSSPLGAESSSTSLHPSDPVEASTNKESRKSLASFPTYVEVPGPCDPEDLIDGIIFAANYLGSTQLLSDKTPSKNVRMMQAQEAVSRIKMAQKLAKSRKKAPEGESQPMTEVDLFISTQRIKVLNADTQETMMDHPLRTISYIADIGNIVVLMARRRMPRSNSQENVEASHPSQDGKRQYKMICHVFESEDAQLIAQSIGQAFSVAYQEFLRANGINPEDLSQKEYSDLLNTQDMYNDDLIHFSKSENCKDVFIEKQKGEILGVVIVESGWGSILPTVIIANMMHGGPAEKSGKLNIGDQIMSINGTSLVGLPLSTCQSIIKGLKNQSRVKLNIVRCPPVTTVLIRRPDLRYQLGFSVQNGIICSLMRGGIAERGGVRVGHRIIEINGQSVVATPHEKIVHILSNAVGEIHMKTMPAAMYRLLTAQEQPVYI
CAAX prenyl protease 1, sequence (P47154 whole entry): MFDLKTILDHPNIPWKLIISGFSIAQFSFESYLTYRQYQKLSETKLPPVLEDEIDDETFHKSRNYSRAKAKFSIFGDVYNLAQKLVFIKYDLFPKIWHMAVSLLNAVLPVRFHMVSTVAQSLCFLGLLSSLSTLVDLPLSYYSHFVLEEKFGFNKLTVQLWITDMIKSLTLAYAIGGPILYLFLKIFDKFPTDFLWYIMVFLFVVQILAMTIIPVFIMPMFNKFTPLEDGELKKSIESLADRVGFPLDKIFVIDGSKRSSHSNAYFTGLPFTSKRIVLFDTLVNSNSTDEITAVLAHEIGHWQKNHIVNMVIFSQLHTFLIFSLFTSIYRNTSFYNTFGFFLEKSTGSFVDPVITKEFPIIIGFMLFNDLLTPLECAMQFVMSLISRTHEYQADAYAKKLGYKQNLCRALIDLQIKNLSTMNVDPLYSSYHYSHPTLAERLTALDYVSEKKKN
Tyrosine-protein phosphatase non-receptor type 12, sequence (Q05209 whole entry): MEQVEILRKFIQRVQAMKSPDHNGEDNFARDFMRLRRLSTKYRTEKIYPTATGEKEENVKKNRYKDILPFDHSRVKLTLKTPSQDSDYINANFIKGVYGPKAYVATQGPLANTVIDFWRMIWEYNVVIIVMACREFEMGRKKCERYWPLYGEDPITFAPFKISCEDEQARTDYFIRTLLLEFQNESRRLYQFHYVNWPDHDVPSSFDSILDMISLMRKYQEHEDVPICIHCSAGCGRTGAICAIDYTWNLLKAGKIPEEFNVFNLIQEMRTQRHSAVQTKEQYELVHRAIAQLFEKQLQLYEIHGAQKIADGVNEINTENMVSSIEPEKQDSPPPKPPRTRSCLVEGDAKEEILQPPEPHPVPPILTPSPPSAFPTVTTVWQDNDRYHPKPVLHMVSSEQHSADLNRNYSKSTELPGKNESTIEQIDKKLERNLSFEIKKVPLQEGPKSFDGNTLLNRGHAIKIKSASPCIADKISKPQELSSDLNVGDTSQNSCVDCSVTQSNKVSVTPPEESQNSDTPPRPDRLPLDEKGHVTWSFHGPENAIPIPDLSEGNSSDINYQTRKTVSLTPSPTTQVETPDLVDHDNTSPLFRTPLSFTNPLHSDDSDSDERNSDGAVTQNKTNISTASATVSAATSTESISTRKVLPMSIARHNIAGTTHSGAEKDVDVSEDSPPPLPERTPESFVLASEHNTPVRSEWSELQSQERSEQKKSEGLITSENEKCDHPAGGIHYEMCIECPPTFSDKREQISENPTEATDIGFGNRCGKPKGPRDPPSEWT
Trypsin, sequence (P00761 whole entry): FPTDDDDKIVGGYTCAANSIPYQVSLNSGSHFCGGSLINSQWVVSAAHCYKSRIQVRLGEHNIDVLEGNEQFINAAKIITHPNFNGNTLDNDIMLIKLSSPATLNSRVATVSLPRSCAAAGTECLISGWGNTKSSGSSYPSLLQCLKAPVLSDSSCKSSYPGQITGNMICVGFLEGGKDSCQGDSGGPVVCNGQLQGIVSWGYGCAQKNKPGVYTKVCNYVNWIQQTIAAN
G-protein coupled receptor 35, sequence (Q9HC97 whole entry): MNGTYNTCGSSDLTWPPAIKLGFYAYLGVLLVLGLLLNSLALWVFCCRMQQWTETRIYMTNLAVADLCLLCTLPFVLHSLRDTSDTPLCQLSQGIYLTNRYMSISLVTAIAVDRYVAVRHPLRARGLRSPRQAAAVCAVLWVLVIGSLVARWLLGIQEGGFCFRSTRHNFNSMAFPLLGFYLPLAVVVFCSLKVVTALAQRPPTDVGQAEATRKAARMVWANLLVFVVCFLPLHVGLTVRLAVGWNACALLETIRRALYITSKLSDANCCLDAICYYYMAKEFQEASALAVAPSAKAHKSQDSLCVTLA

Consider `O=C(CCCN1C(=O)/C(=C/c2ccc3c(c2)OCO3)SC1=S)Nc1ccc(C(=O)O)c(O)c1`, for which the concentration for half-maximal inhibition (IC50) in [1] is 8.75 µM (active); in [2], 73.1 µM (active); in [3], 2.09 µM (active); in [4], > 32 µM (inactive); in assay [5] it was 39.4 µM (active); in assay [6], > 100 µM (inactive).
Regarding `CC(C)CCN1CCC[C@H](NC(=O)COc2ccc(F)c(Cl)c2)C1`, the EC50 in assay [7] was 10 µM (active).
Take `COc1ccc(OC)c(/C=N/NC(=O)CSc2cc(C)nc3c(OC)cccc23)c1`: the AC50 on CAAX prenyl protease 1 was 6.88 µM (active); on Trypsin, 34.3 µM (active); on CAAX prenyl protease 2, 10.7 µM (active).
Consider `O=C(NCc1ccco1)c1ccc([N+](=O)[O-])o1`, for which the EC50 is > 60 µM (not active) in [8] and 0.128 µM (active) in assay [12]. In addition, the IC50 is > 39.5 µM (inactive) in assay [9], 4.6 µM (active) in assay [10], 113 µM (inactive) at Exodeoxyribonuclease V and 34.6 µM (active) in [11]. For the same compound, the CC50 in the assay on Vero was 22.8 µM (active).
